Source: patent US11051515B2, “3-acyl-benzamides and their use as herbicides” (Bayer Aktiengesellschaft, priority 2017, dated 2021)

What was measured:
[1] = tested on: ABUTH; experiment: Pre-emergence action against ABUTH; type: in vivo, Abutilon theophrasti; settings: pre-emergence, dosage 320 g/ha, scored visually after 3 weeks vs untreated controls
Outline: (§1)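 Seeds sown in sandy loam in wood-fiber pots and covered with soil. Greenhouse growth; visual damage scored after 3 weeks versus untreated controls (100% = dead, 0% = like control).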

[2] = tested on: STEME; experiment: Post-emergence action against STEME; type: in vivo, Stellaria media; settings: post-emergence, dosage 80 g/ha
Outline: (§2)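 Weeds grown in sandy loam in greenhouse, treated at one-leaf stage (2–3 weeks after sowing) with WP or EC formulations sprayed as aqueous suspension/emulsion at 600 to […] water with 0.2% wetting agent. Visual rating after about 3 weeks versus untreated controls, as % herbicidal action (100% = plants dead, 0% = like control).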

[3] = tested on: LOLRI; experiment: Post-emergence action against LOLRI; type: in vivo, Lolium rigidum; settings: dosage 80 g/ha, visual assessment about 3 weeks after treatment vs untreated controls
Outline: as §2

[4] = tested on: HORMU; experiment: Post-emergence action against HORMU; type: in vivo, Hordeum murinum; settings: dosage 80 g/ha
Method: Seeds of monocotyledonous and dicotyledonous weed and crop plants are laid out in sandy loam soil in wood-fiber pots, covered with soil and cultivated in a greenhouse under good growth conditions. 2 to 3 weeks after sowing, the test plants are treated at the one-leaf stage. The compounds of the invention, formulated in the form of wettable powders (WP) or as emulsion concentrates (EC), are then sprayed onto the green parts of the plants in the form of an aqueous suspension or emulsion at a water application rate equating to […], with addition of 0.2% wetting agent. After the test plants have been left to stand in the greenhouse under optimal growth conditions for about 3 weeks, the action of the preparations is assessed visually in comparison to untreated controls (herbicidal action in percent (%): 100% activity=the plants have died, 0% activity=like control plants). […] At the same time, inventive compounds leave Gramineae crops such as barley, wheat, rye, millet/Sorghum, corn or rice virtually undamaged when applied post-emergence, even at high active ingredient dosages. In addition, some substances are also harmless to dicotyledonous crops such as soya, cotton, oilseed rape, sugar beet or potatoes. Some of the compounds according to the invention have high selectivity and are therefore suitable for controlling unwanted vegetation in agricultural crops by the post-emergence method. The data of Tables B18 to B34 below illustrate, in an exemplary manner, the […] herbicidal action of the compounds according to the invention, the herbicidal activity being stated in percent.

[5] = tested on: VERPE; experiment: Pre-emergence action against VERPE; type: in vivo, Veronica persica; settings: Dosage 320 g/ha, pre-emergence
Outline: as §1

[6] = tested on: POLCO; experiment: Post-emergence action against POLCO; type: in vivo, Polygonum convolvulus; settings: post-emergence, dosage 80 g/ha
Outline: as §2

[7] = tested on: VERPE; experiment: Post-emergence action against VERPE; type: in vivo, Veronica persica; settings: dosage 80 g/ha
Outline: as §2

[8] = tested on: HORMU; experiment: Pre-emergence action against HORMU; type: in vivo, Hordeum murinum; settings: Dosage 320 g/ha
Outline: as §1

[9] = tested on: AMARE; experiment: Post-emergence action against AMARE; type: in vivo, Amaranthus retroflexus; settings: post-emergence, dosage 80 g/ha, visual assessment about 3 weeks after treatment vs untreated controls
Outline: as §2

[10] = tested on: SETVI; experiment: Pre-emergence action against SETVI; type: in vivo, Setaria viridis; settings: pre-emergence, dosage 320 g/ha, scored visually after 3 weeks vs untreated controls
Outline: as §1

[11] = tested on: MATIN; experiment: Pre-emergence action against MATIN; type: in vivo, Matricaria inodora; settings: Dosage 320 g/ha, pre-emergence
Outline: as §1

[12] = tested on: POLCO; experiment: Pre-emergence action against POLCO; type: in vivo, Polygonum convolvulus; settings: Dosage 320 g/ha, pre-emergence
Outline: as §1

[13] = tested on: VIOTR; experiment: Post-emergence action against VIOTR; type: in vivo, Viola tricolor; settings: post-emergence, dosage 80 g/ha
Outline: as §2

[14] = tested on: PHBPU; experiment: Post-emergence action against PHBPU; type: in vivo, Pharbitis purpurea; settings: post-emergence, dosage 80 g/ha
Outline: as §2

[15] = tested on: CYPES; experiment: Post-emergence action against CYPES; type: in vivo, Cyperus esculentus; settings: post-emergence, dosage 80 g/ha, visual assessment about 3 weeks after treatment vs untreated controls
Outline: as §2

[16] = tested on: ABUTH; experiment: Post-emergence action against ABUTH; type: in vivo, Abutilon theophrasti; settings: post-emergence, dosage 80 g/ha, visual assessment about 3 weeks after treatment vs untreated controls
Outline: as §2

[17] = tested on: VIOTR; experiment: Pre-emergence action against VIOTR; type: in vivo, Viola tricolor; settings: Dosage 320 g/ha, pre-emergence
Outline: as §1

[18] = tested on: AMARE; experiment: Pre-emergence action against AMARE; type: in vivo, Amaranthus retroflexus; settings: pre-emergence, dosage 320 g/ha, scored visually after 3 weeks vs untreated controls
Outline: as §1

[19] = tested on: MATIN; experiment: Post-emergence action against MATIN; type: in vivo, Matricaria inodora; settings: post-emergence, dosage 80 g/ha, visual assessment about 3 weeks after treatment vs untreated controls
Outline: as §2

[20] = tested on: PHBPU; experiment: Pre-emergence action against PHBPU; type: in vivo, Pharbitis purpurea; settings: Dosage 320 g/ha, pre-emergence
Outline: as §1

[21] = tested on: ALOMY; experiment: Pre-emergence action against ALOMY; type: in vivo, Alopecurus myosuroides; settings: dosage 320 g/ha; pre-emergence; scored visually after 3 weeks vs untreated controls; 100% = plants have died, 0% = like control plants
Outline: as §1

[22] = tested on: AVEFA; experiment: Pre-emergence action against AVEFA; type: in vivo, Avena fatua; settings: dosage 320 g/ha, scored visually after 3 weeks vs untreated controls
Outline: as §1

[23] = tested on: AVEFA; experiment: Post-emergence action against AVEFA; type: in vivo, Avena fatua; settings: post-emergence, dosage 80 g/ha, visual assessment about 3 weeks after treatment vs untreated controls
Outline: as §2

[24] = tested on: STEME; experiment: Pre-emergence action against STEME; type: in vivo, Stellaria media; settings: Dosage 320 g/ha, pre-emergence
Outline: as §1

[25] = tested on: LOLRI; experiment: Pre-emergence action against LOLRI; type: in vivo, Lolium rigidum; settings: dosage 320 g/ha, scored visually after 3 weeks vs untreated controls
Outline: as §1

[26] = tested on: ALOMY; experiment: Post-emergence action against ALOMY; type: in vivo, Alopecurus myosuroides; settings: Dosage 80 g/ha, post-emergence
Outline: as §2

[27] = tested on: SETVI; experiment: Post-emergence action against SETVI; type: in vivo, Setaria viridis; settings: post-emergence, dosage 80 g/ha, visual assessment about 3 weeks after treatment vs untreated controls
Outline: as §2

[28] = tested on: ECHCG; experiment: Post-emergence action against ECHCG; type: in vivo, Echinochloa crus-galli; settings: post-emergence, dosage 80 g/ha, visual assessment about 3 weeks after treatment vs untreated controls
Outline: as §2

[29] = tested on: ECHCG; experiment: Pre-emergence action against ECHCG; type: in vivo, Echinochloa crus-galli; settings: pre-emergence, dosage 320 g/ha, scored visually after 3 weeks vs untreated controls
Outline: as §1

[30] = tested on: CYPES; experiment: Pre-emergence action against CYPES; type: in vivo, Cyperus esculentus; settings: pre-emergence, dosage 320 g/ha, scored visually after 3 weeks vs untreated controls
Outline: as §1

[31] = tested on: LOLMU; experiment: Pre-emergence action against LOLMU; type: in vivo, Lolium multiflorum; settings: dosage 320 g/ha, scored visually after 3 weeks vs untreated controls
Outline: as §1

[32] = tested on: LOLMU; experiment: Post-emergence action against LOLMU; type: in vivo, Lolium multiflorum; settings: dosage 80 g/ha, visual assessment about 3 weeks after treatment vs untreated controls
Outline: as §2

Compound | Pre-emergence action against ABUTH (herbicidal activity) [1] | Post-emergence action against STEME [2] | Pre-emergence action against VERPE [5] | Post-emergence action against POLCO [6] | Post-emergence action against VERPE [7] | Post-emergence action against AMARE (herbicidal action in percent) [9] | SETVI (Table B8, pre-emergence herbicidal activity) [10] | Pre-emergence action against MATIN [11] | Pre-emergence action against POLCO [12] | Post-emergence action against VIOTR [13] | Post-emergence action against PHBPU [14] | Post-emergence action against CYPES (herbicidal action in percent) [15] | Post-emergence action against ABUTH (herbicidal action in percent) [16] | Pre-emergence action against VIOTR [17] | Pre-emergence action against AMARE (herbicidal activity) [18] | Post-emergence action against MATIN (herbicidal action in percent) [19] | Pre-emergence action against PHBPU [20] | Pre-emergence action against ALOMY (herbicidal activity in percent) [21] | Pre-emergence action against AVEFA (herbicidal activity) [22] | Pre-emergence action against STEME [24] | further results
CCn1nnnc1NC(=O)c1ccc(C(F)F)c(C(=O)C2CC2)c1SC [2-67] | 100% | 100 | 100% | 100 | 90 | 100% | 100% | 100% | 90% | 100 | 100 | 80% | 100% | 100% | 100% | 100% | 90% | 100% | 100% | 100% | Post-emergence action against LOLRI (herbicidal action in percent) [3]: 80%; Post-emergence action against HORMU [4]: 80; Pre-emergence action against HORMU [8]: 100%; Post-emergence action against AVEFA (herbicidal action in percent) [23]: 100%; Pre-emergence action against LOLRI (herbicidal activity) [25]: 100%; Post-emergence action against ALOMY [26]: 100%; Post-emergence action against SETVI (herbicidal action in percent) [27]: 100%; Post-emergence action against ECHCG (herbicidal action in percent) [28]: 100%; Pre-emergence action against ECHCG (herbicidal activity) [29]: 100%
CCn1nnnc1NC(=O)c1ccc(Cl)c(C(=O)C2CC2)c1Cl [2-116] | 100% | 90 | 100% | 90 | 90 | 90% | 100% | 100% | 90% | 100 | 100 | 80% | 80% | 100% | 100% | 90% | 90% | 100% | 90% | 90% | Pre-emergence action against CYPES (herbicidal activity) [30]: 90%; Pre-emergence action against LOLMU (herbicidal activity) [31]: 100%; Post-emergence action against LOLMU (herbicidal action in percent) [32]: 90%; Post-emergence action against AVEFA (herbicidal action in percent) [23]: 90%; Post-emergence action against ALOMY [26]: 80%; Post-emergence action against SETVI (herbicidal action in percent) [27]: 90%; Post-emergence action against ECHCG (herbicidal action in percent) [28]: 90%; Pre-emergence action against ECHCG (herbicidal activity) [29]: 100%
CCCn1nnnc1NC(=O)c1ccc(C(F)F)c(C(=O)C2CC2)c1SC [3-67] | 100% | 100 | 100% | 80 | 80 | 100% | 100% | 100% | 90% | 100 | 100 | 80% | 100% | 100% | 100% | 100% | 100% | 100% | 100% | 90% | Pre-emergence action against CYPES (herbicidal activity) [30]: 100%; Post-emergence action against LOLRI (herbicidal action in percent) [3]: 80%; Post-emergence action against HORMU [4]: 80; Pre-emergence action against HORMU [8]: 100%; Pre-emergence action against LOLRI (herbicidal activity) [25]: 100%; Post-emergence action against SETVI (herbicidal action in percent) [27]: 100%; Post-emergence action against ECHCG (herbicidal action in percent) [28]: 100%; Pre-emergence action against ECHCG (herbicidal activity) [29]: 100%
